Laboratory results from US6730703B2, “Dual inhibitors of cholesteryl ester and wax ester synthesis for sebaceous gland disorders” (Warner-Lambert Company, priority 2000, dated 2004).
Where two headings read alike, the source gives them in different places.

Columns and labels:
[1] = tested on: AFAT (acyl-Coenzyme A: fatty alcohol acyltransferase); test: Inhibition of wax ester (WE) synthesis in mouse preputial gland microsomes; settings: for IC50: read-out: Inhibition of Wax Ester (WE) Synthesis IC50, mouse preputial microsome preparation, [14C]hexadecanol label, oleoyl coenzyme A
Protocol: (§1) a) The rats or mice are anesthetized with ether, and the PGs are removed and placed in a beaker containing wash buffer (ice cold).
(§2) b) As soon as possible, the PGs are homogenized in a Potter-Elvehjem homogenizer with 15 mL of homogenizing buffer. The homogenizer is kept in a small ice bath. Work the plunger until it reaches the bottom of the tube 10 times.
(§3) k) Add 1 mL of 0.2 M KPO4 buffer pH 7.4 to half of the bottles in an ice bath. Scrape the whole pellet loose with a teflon rod and transfer to a 15 mL homogenizer. Wash bottle with 1 mL of buffer and transfer to one of the bottles that has a pellet but no buffer. Homogenize gently by hand. Aliquot into Cryovials (Nalgene™) and store in liquid nitrogen. The microsomes remain active for at least 2 years.
(§4) m) Determine the protein concentration of the homogenate by the Lowry method. […] Desired protein concentration is 20 mg/mL rat or mouse PG microsomes.
(§5) C. [4-^14C]Cholesteryl or [(1-^14C]Hexadecanol. Evaporate the toluene from the vial. Re-suspend radiolabel in 0.1 mL 2-propanol.
(§6) D. Oleoyl Coenzyme A (1 mM in sucrose buffer). Dissolve 10.3 mg oleoyl coenzyme A (Sigma 0-7002) in 10 mL sucrose buffer. Note: Store at −10° C. Dilute 5-fold to 200 μM with sucrose buffer just prior to assay.
(§7) E. [^14C]Cholesteryl—Labeled Microsomes or [^14C]Hexadecanol—Labeled Microsomes. Dilute a vial of stock microsomes to 4 mg protein per milliliter with sucrose buffer. For every 1 mL of diluted microsome solution, use glass syringe (Hamilton, [sequence], 1702) and transfer 2.5 μL of radiolabel to diluted microsomes by submerging syringe needle in the microsome solution and swirling while ejecting syringe contents. Flush syringe once with microsome solution. Determine dpm in small aliquot of solution by liquid scintillation counting (LSC). Need approximately 4×10^6 dpm/mL in the microsome solution.
(§8) G. Test Compound Solutions. Test compounds are weighed to make either 1 mM or 4 mM stock solutions in dimethylsulfoxide (DMSO). These solutions are used to prepare DMSO solutions containing 40 times the concentration of compound to be tested. These solutions may be prepared 24 hours prior to the assay and stored at room temperature.
(§9) a) Duplicate samples are prepared by adding 5 μL of test compound solution to each of two assay tubes. Controls and blanks receive 5 μL of DMSO. […]
(§10) h) Transfer 40 μL of the acidified solution to the pre-absorbent area of Whatman LK6D silica gel TLC plates, which are then dried on a hot plate for 5 minutes and developed in trimethylpentane/diethyl ether/acetic acid (75:25:2). The bands containing radiolabel are detected and quantitated by phosphorimaging with a Molecular Dynamics phosphorimager.
(§11) TLC will resolve free alcohol from its ester. The relative amount of radioactivity in each of those bands is determined by phosphorimaging. […]

[2] = tested on: ACAT (acyl-Coenzyme A: cholesteryl acyltransferase)
Protocol: as §5
D. Oleoyl Coenzyme A (1 mM in sucrose buffer). […] Note: Store at −10° C. Dilute 5-fold to 200 μM with sucrose buffer just prior to assay.
E. [^14C]Cholesteryl—Labeled Microsomes or [^14C]Hexadecanol—Labeled Microsomes. Dilute a vial of stock microsomes to 4 mg protein per milliliter with sucrose buffer. […] Flush syringe once with microsome solution. Determine dpm in small aliquot of solution by liquid scintillation counting (LSC). Need approximately 4×10^6 dpm/mL in the microsome solution.
G. Test Compound Solutions. Test compounds are weighed to make either 1 mM or 4 mM stock solutions in dimethylsulfoxide (DMSO). These solutions are used to prepare DMSO solutions containing 40 times the concentration of compound to be tested. […]
as §10, §11

[3] = tested on: AFAT (acyl-Coenzyme A: fatty alcohol acyltransferase)
Protocol: as §1, §2, §3, §4, §5, §6, §7, §8, §9, §10, §11

SMILES	Inhibition of WE synthesis in mouse preputial gland microsomes (in words) ([1]; inhibition curves of FIG. 1, 0.01 μM to 100 μM)	IC50 [1] [µM]	Inhibition of liver ACAT (in words) ([2]; inhibition curves of FIG. 1, printed as rat liver ACAT)	IC50 ([2]; read-out: Inhibition of Cholesteryl Ester (CE) Synthesis IC50, mouse liver microsome preparation, [14C]cholesteryl label, oleoyl coenzyme A) [µM]	Inhibition of WE synthesis in mouse preputial gland microsomes (in words) [3]
CCCCCCCCCCC(C)(C)C(=O)Nc1c(OC)cc(OC)cc1OC [Compound 2, 2,2-dimethyl-N-(2,4,6-trimethoxyphenyl)-dodecanamide]	no inhibition of WE synthesis	> 100			
CC(C)c1cc(C(C)C)c(CC(=O)NS(=O)(=O)Oc2c(C(C)C)cccc2C(C)C)c(C(C)C)c1 [Compound 1, [(2,4,6-triisopropyl-phenyl)-acetyl]-sulfamic acid 2,6-diisopropyl-phenyl ester]		13.9	potent inhibitors of rat liver ACAT	0.09	unexpectedly inhibits WE synthesis
